Test results taken from paper PMC12310481, “Sequence, characterization and pharmacological analyses of the adipokinetic hormone receptor in the stick insect, Carausius morosus” (Frontiers in Endocrinology, 2025).
Where “and” joins values, the source holds several entries; their conditions need not be identical. Equal entries are not always repeated. Where two headings read alike, the source gives them in different places. One block for each molecule: values may come before it. Starred links: 1 amine or outer side, 2 acyl side, 3 side chain; linkers in the order of their positions; H or OH if unused. Non-standard residues stand in square brackets, D forms with d. Residues, ends and D or L forms follow the SMILES beside them. X1 = O=C([C@H](Cc1c([C@H]2O[C@H](CO)[C@@H](O)[C@H](O)[C@@H]2O)[nH]c2ccccc12)N[*:1])[*:2]; pGlu = O=C1CC[C@@H](C(=O)O)N1

Test system: Carausius morosus AKH receptor (Carmo-AKHR)
Experiment: Calcium bioluminescence (aequorin) reporter assay, CHO-K1 cells stably expressing Carmo-AKHR
Assay type: cell-based
Settings: for Fold-reduction in activity (receptor activation relative to Carmo-HrTH-II): ratio of EC50 relative to Carmo-HrTH-II; for Receptor activation (in words): dose-response or clonal line testing, luminescence
Procedure: Functional activation of Carmo-AKHR was carried out by following mammalian cell culture procedures as previously described ([20], [29]) with the following modifications. […] At 24 h post-transfection, cells were selected in DMEM:F12 media containing 10% heat-inactivated fetal bovine serum (Wisent, St. Bruno, QC), 1x antimycotic-antibiotic and 600 μg/mL geneticin (G418) until clonal recombinant cells were evident in transfected cells while no live cells were present in non-transfected CHO-K1 cells (control). Individual clonal recombinant colonies were seeded into separate wells of a 96 well cell-culture dish (Sarstedt Inc., Montreal, QC) and grown to confluence while maintaining geneticin selection. To identify clonal recombinant lines with optimal Carmo-AKHR activity yielding the greatest signal-to-noise ratio, individual clonal recombinant lines were assayed in the bioluminescence reporter assay as described previously ([30]). […] The recombinant cell line showing the optimal luminescent response with greatest signal-to-noise ratio was expanded for preparation of cryo-stocks and subsequent detailed investigation of receptor specificity. […] Bruno, QC), 250 μg/mL Geneticin (MilliporeSigma Canada Ltd., Oakville, ON) and 1X antimycotic-antibiotic (ThermoFisher Scientific, Whitby, ON). […] Transfection was completed with PolyJetTM DNA In Vitro Transfection Reagent (FroggaBio, Toronto, ON) following manufacturer recommendations for transfection of adherent cells. At 48 hours post-transfection, cells were detached from culture flasks using Dulbecco's PBS (Wisent, St. Bruno, QC) containing 5 mM Ethylenediaminetetraacetic acid (EDTA) and were prepared for the functional assay as previously described ([30]). […] Immediately after injection of the cells into each well, luminescence was measured for 20 s using a Synergy 2 Multi-Mode Microplate Reader (BioTek, Winooski, VT, USA). […] Data were analyzed using a one-way or two-way ANOVA and Tukey's multiple comparisons post-hoc test, with differences between treatments considered significant if p<0.05.

[1] = minimal activity up to the highest concentration tested, read-out: EC50 value (M), not determinable: minimal activity
[2] = CHO-K1 stably expressing Carmo-AKHR, transiently aequorin, luminescence measured 20 s, from dose-response activation curves, 3 to 4 independent biological replicates, normalized to ATP maximum, read-out: EC50 value

EC50 [1]: > 0.0001 M
Molecule: CC(C)C[C@H](NC(=O)[C@@H]1CCC(=O)N1)C(=O)N[C@H](C(=O)N[C@@H](Cc1ccccc1)C(=O)N[C@H](C(=O)N1CCC[C@H]1C(=O)N[C@@H](CC(N)=O)C(=O)N[C@@H](C)C(=O)NCC(=O)N[C@H](C(N)=O)[C@@H](C)O)[C@@H](C)O)[C@@H](C)O [Ala^8-analog] ([pGlu]LTFTPNAGT-NH2)
Fold-reduction in activity (receptor activation relative to Carmo-HrTH-II): >1360 fold

Molecule: CC(C)C[C@H](NC(=O)[C@@H]1CCC(=O)N1)C(=O)N[C@H](C(=O)N[C@@H](Cc1ccccc1)C(=O)N[C@H](C(=O)N1CCC[C@H]1C(=O)N[C@@H](CC(N)=O)C(=O)N[C@@H](Cc1c([C@H]2O[C@H](CO)[C@@H](O)[C@H](O)[C@@H]2O)[nH]c2ccccc12)C(=O)NCC(=O)N[C@H](C(N)=O)[C@@H](C)O)[C@@H](C)O)[C@@H](C)O [Carmo-HrTH-I] ([pGlu]LTFTPN[X1]GT-NH2)
EC50 [2]: 8.97e-08 M
Fold-reduction in activity (receptor activation relative to Carmo-HrTH-II): 1.22 fold

Molecule: CC(C)C[C@H](NC(=O)[C@@H]1CCC(=O)N1)C(=O)N[C@H](C(=O)N[C@@H](Cc1ccccc1)C(=O)N[C@H](C(=O)N1CCC[C@H]1C(=O)N[C@@H](C)C(=O)N[C@@H](Cc1c[nH]c2ccccc12)C(=O)NCC(=O)N[C@H](C(N)=O)[C@@H](C)O)[C@@H](C)O)[C@@H](C)O [Ala^7-analog] ([pGlu]LTFTPAWGT-NH2)
EC50 [2]: 3.1e-07 M
Fold-reduction in activity (receptor activation relative to Carmo-HrTH-II): 4.21 fold

Molecule: CC(C)C[C@H](NC(=O)[C@@H]1CCC(=O)N1)C(=O)N[C@@H](CC(N)=O)C(=O)N[C@@H](Cc1ccccc1)C(=O)N[C@@H](CO)C(=O)N1CCC[C@H]1C(=O)NCC(=O)N[C@@H](Cc1c[nH]c2ccccc12)C(N)=O [Panbo-RPCH] ([pGlu]LNFSPGW-NH2)
EC50 [2]: 3.35e-05 M
Fold-reduction in activity (receptor activation relative to Carmo-HrTH-II): 455 fold and 455.74 fold

Molecule: CC(C)C[C@H](NC(=O)[C@@H]1CCC(=O)N1)C(=O)N[C@H](C(=O)N[C@@H](Cc1ccccc1)C(=O)N[C@H](C(=O)N1CCC[C@H]1C(=O)N[C@@H](CC(N)=O)C(=O)N[C@@H](Cc1c[nH]c2ccccc12)C(=O)N[C@@H](C)C(=O)N[C@H](C(N)=O)[C@@H](C)O)[C@@H](C)O)[C@@H](C)O [Ala^9-analog] ([pGlu]LTFTPNWAT-NH2)
EC50 [2]: 1.48e-06 M
Fold-reduction in activity (receptor activation relative to Carmo-HrTH-II): 20.18 fold

Molecule: CC(C)C[C@H](NC(=O)[C@@H]1CCC(=O)N1)C(=O)N[C@H](C(=O)N[C@@H](Cc1ccccc1)C(=O)N[C@@H](C)C(=O)N1CCC[C@H]1C(=O)N[C@@H](CC(N)=O)C(=O)N[C@@H](Cc1c[nH]c2ccccc12)C(=O)NCC(=O)N[C@H](C(N)=O)[C@@H](C)O)[C@@H](C)O [Ala^5-analog] ([pGlu]LTFAPNWGT-NH2)
EC50 [2]: 8.58e-05 M
Fold-reduction in activity (receptor activation relative to Carmo-HrTH-II): 1166.83 fold

EC50 [1]: > 0.0001 M
Molecule: CC(C)C[C@H](N)C(=O)N[C@H](C(=O)N[C@@H](Cc1ccccc1)C(=O)N[C@H](C(=O)N1CCC[C@H]1C(=O)N[C@@H](CC(N)=O)C(=O)N[C@@H](Cc1c[nH]c2ccccc12)C(=O)NCC(=O)N[C@H](C(N)=O)[C@@H](C)O)[C@@H](C)O)[C@@H](C)O [Carmo-HrTH-II minus pGlu] (H-LTFTPNWGT-NH2)
Fold-reduction in activity (receptor activation relative to Carmo-HrTH-II): >1360 fold

EC50 [1]: > 0.0001 M
Molecule: CC(C)C[C@H](NC(=O)[C@@H]1CCC(=O)N1)C(=O)N[C@H](C(=O)N[C@@H](Cc1ccccc1)C(=O)N[C@H](C(=O)N1CCC[C@H]1C(=O)N[C@@H](CC(N)=O)C(=O)N[C@@H](Cc1c[nH]c2ccccc12)C(=O)NCC(=O)N[C@H](C(=O)O)[C@@H](C)O)[C@@H](C)O)[C@@H](C)O [Carmo-HrTH-II free acid] ([pGlu]LTFTPNWGT-OH)
Fold-reduction in activity (receptor activation relative to Carmo-HrTH-II): >1360 fold

Molecule: CC(C)C[C@H](NC(=O)[C@@H]1CCC(=O)N1)C(=O)N[C@H](C(=O)N[C@@H](Cc1ccccc1)C(=O)N[C@H](C(=O)N1CCC[C@H]1C(=O)N[C@@H](CC(N)=O)C(=O)N[C@@H](Cc1c[nH]c2ccccc12)C(=O)NCC(N)=O)[C@@H](C)O)[C@@H](C)O [Triin-AKH] ([pGlu]LTFTPNWG-NH2)
EC50 [2]: 5.48e-07 M
Fold-reduction in activity (receptor activation relative to Carmo-HrTH-II): 7.45 fold

Molecule: pETFQYSRGWTN amide [Aedae-Crz, corazonin of the mosquito Aedes aegypti]
Receptor activation (in words): failed to activate the receptor at all tested doses

Molecule: [pGlu]LAFTPNWGT-NH2 [Ala^3-analog, alanine-substituted analog of Carmo-HrTH-II, position 3]
Fold-reduction in activity (receptor activation relative to Carmo-HrTH-II): 1045.82 fold

EC50 [1]: > 0.0001 M
Molecule: CC(C)[C@H](NC(=O)[C@@H]1CCC(=O)N1)C(=O)N[C@@H](CC(N)=O)C(=O)N[C@@H](Cc1ccccc1)C(=O)N[C@@H](CO)C(=O)N1CCC[C@H]1C(=O)N[C@@H](CC(N)=O)C(=O)N[C@@H](Cc1c[nH]c2ccccc12)C(N)=O [Peram-CAH-I] ([pGlu]VNFSPNW-NH2)
Receptor activation (in words): complete loss of efficacy
Fold-reduction in activity (receptor activation relative to Carmo-HrTH-II): >1360 fold

Molecule: CC(C)C[C@H](NC(=O)[C@@H]1CCC(=O)N1)C(=O)N[C@H](C(=O)N[C@@H](Cc1ccccc1)C(=O)N[C@H](C(=O)N[C@@H](C)C(=O)N[C@@H](CC(N)=O)C(=O)N[C@@H](Cc1c[nH]c2ccccc12)C(=O)NCC(=O)N[C@H](C(N)=O)[C@@H](C)O)[C@@H](C)O)[C@@H](C)O [Ala^6-analog] ([pGlu]LTFTANWGT-NH2)
EC50 [2]: 4.04e-07 M
Fold-reduction in activity (receptor activation relative to Carmo-HrTH-II): 5.49 fold

Molecule: [pGlu]VTFSRDWNA-NH2 [Aedae-ACP, AKH/corazonin-related peptide of Aedes aegypti]
Receptor activation (in words): failed to activate the receptor at all tested doses

EC50 [1]: > 0.0001 M
Molecule: CC(=O)N[C@@H](C)C(=O)N[C@@H](CC(C)C)C(=O)N[C@H](C(=O)N[C@@H](Cc1ccccc1)C(=O)N[C@H](C(=O)N1CCC[C@H]1C(=O)N[C@@H](CC(N)=O)C(=O)N[C@@H](Cc1c[nH]c2ccccc12)C(=O)NCC(=O)N[C@H](C(N)=O)[C@@H](C)O)[C@@H](C)O)[C@@H](C)O [[N-Ac. Ala]^1-analog] (Ac-ALTFTPNWGT-NH2)
Fold-reduction in activity (receptor activation relative to Carmo-HrTH-II): >1360 fold

Molecule: CC[C@H](C)[C@H](NC(=O)[C@@H]1CCC(=O)N1)C(=O)N[C@H](C(=O)N[C@@H](Cc1ccccc1)C(=O)N[C@H](C(=O)N1CCC[C@H]1C(=O)N[C@@H](CC(N)=O)C(=O)N[C@@H](Cc1c[nH]c2ccccc12)C(N)=O)[C@@H](C)O)[C@@H](C)O [Polae-HrTH] ([pGlu]ITFTPNW-NH2)
EC50 [2]: 8.76e-06 M
Fold-reduction in activity (receptor activation relative to Carmo-HrTH-II): 120 fold and 119.12 fold

Molecule: C[C@H](NC(=O)[C@@H]1CCC(=O)N1)C(=O)N[C@H](C(=O)N[C@@H](Cc1ccccc1)C(=O)N[C@H](C(=O)N1CCC[C@H]1C(=O)N[C@@H](CC(N)=O)C(=O)N[C@@H](Cc1c[nH]c2ccccc12)C(=O)NCC(=O)N[C@H](C(N)=O)[C@@H](C)O)[C@@H](C)O)[C@@H](C)O [Ala^2-analog] ([pGlu]ATFTPNWGT-NH2)
EC50 [2]: 6.93e-07 M
Fold-reduction in activity (receptor activation relative to Carmo-HrTH-II): 9.42 fold

Molecule: CC(C)C[C@H](NC(=O)[C@@H]1CCC(=O)N1)C(=O)N[C@H](C(=O)N[C@@H](Cc1ccccc1)C(=O)N[C@H](C(=O)N1CCC[C@H]1C(=O)N[C@@H](CC(N)=O)C(=O)N[C@@H](Cc1c[nH]c2ccccc12)C(=O)NCC(=O)N[C@@H](C)C(N)=O)[C@@H](C)O)[C@@H](C)O [Ala^10-analog] ([pGlu]LTFTPNWGA-NH2)
EC50 [2]: 1.1e-08 M
Fold-reduction in activity (receptor activation relative to Carmo-HrTH-II): 0.15 fold
